Laboratory results: ChEMBL document CHEMBL1201861, “Genomics of Drug Sensitity in Cancer screening data, Wellcome Trust Sanger Institute”

Assays:
NCI-H889 = test: cells; format: functional, cell-based, Homo sapiens; conditions: Homo sapiens, NCI-H889;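 also: cell growth inhibition of the cell line, read out with a viability assay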
Description: SANGER: Inhibition of human NCI-H889 cell growth in a cell viability assay.

CaR-1 = test: cells; format: functional, cell-based; conditions: Homo sapiens;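 also: growth inhibition of human CaR-1 cancer cells, read out with a cell viability assay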
Description: SANGER: Inhibition of human CaR-1 cell growth in a cell viability assay.

LCLC-103H cell line = test: cells; format: functional, cell-based; conditions: Homo sapiens
Description: SANGER: Inhibition of human LCLC-103H cell growth in a cell viability assay.

MDA-MB-157 = test: cells; format: functional, cell-based; conditions: Homo sapiens
Description: SANGER: Inhibition of human MDA-MB-157 cell growth in a cell viability assay.

NCI-H1651 = test: cells; format: functional, cell-based; conditions: Homo sapiens;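 also: Read-out is a cell viability assay, with IC50 expressing inhibition of NCI-H1651 cell growth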
Description: SANGER: Inhibition of human NCI-H1651 cell growth in a cell viability assay.

SK-MEL-28 = test: cells; format: functional, cell-based; conditions: Homo sapiens;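 also: growth inhibition of human SK-MEL-28 cells, read out with a cell viability assay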
Description: SANGER: Inhibition of human SK-MEL-28 cell growth in a cell viability assay.

KYSE-520 cell line = test: cells; format: functional, cell-based; conditions: Homo sapiens;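 also: growth inhibition of human KYSE-520 cells, read out with a viability assay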
Description: SANGER: Inhibition of human KYSE-520 cell growth in a cell viability assay.

HCC1954 = test: cells; format: functional, cell-based; conditions: Homo sapiens;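 also: growth inhibition of human HCC1954 cells, read out with a cell viability assay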
Description: SANGER: Inhibition of human HCC1954 cell growth in a cell viability assay.

SF-295 = test: cells; format: functional, cell-based; conditions: Homo sapiens;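 also: growth inhibition of SF-295 cells, read out with a cell viability assay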
Description: SANGER: Inhibition of human SF295 cell growth in a cell viability assay.

ABC-1 = test: cells; format: functional, cell-based; conditions: Homo sapiens;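 also: growth inhibition of human ABC-1 cells, read out by a cell viability assay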
Description: SANGER: Inhibition of human ABC-1 cell growth in a cell viability assay.

TE-441-T = test: cells; format: functional, cell-based, Homo sapiens; conditions: Homo sapiens, TE-441-T
Description: SANGER: Inhibition of human TE-441-T cell growth in a cell viability assay.

WSU-NHL = test: cells; format: functional, cell-based, Homo sapiens; conditions: Homo sapiens, WSU-NHL;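 also: growth inhibition of human WSU-NHL cells, read out with a cell viability assay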
Description: SANGER: Inhibition of human WSU-NHL cell growth in a cell viability assay.

BC1 cell line = test: SANGER: Inhibition of human BC-1 cell growth in a cell viability assay.; format: functional, cell-based; conditions: Homo sapiens, BC1
SK-MES-1 = test: cells; format: functional, cell-based; conditions: Homo sapiens;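 also: growth inhibition of human SK-MES-1 cells, read out with a cell viability assay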
Description: SANGER: Inhibition of human SK-MES-1 cell growth in a cell viability assay.

KYSE-70 cell line = test: cells; format: functional, cell-based; conditions: Homo sapiens;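 also: cell viability assay read-out, with IC50 expressing suppression of KYSE-70 cell growth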
Description: SANGER: Inhibition of human KYSE-70 cell growth in a cell viability assay.

SJRH30 = test: cells; format: functional, cell-based; conditions: Homo sapiens;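 also: growth inhibition of human SJRH30 cells, read out with a cell viability assay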
Description: SANGER: Inhibition of human SJRH30 cell growth in a cell viability assay.

NCI-H524 = test: cells; format: functional, cell-based, Homo sapiens; conditions: Homo sapiens, NCI-H524;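 also: growth inhibition of human NCI-H524 cells, read out through a cell viability assay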
Description: SANGER: Inhibition of human NCI-H524 cell growth in a cell viability assay.

RMG-I = test: cells; format: functional, cell-based; conditions: Homo sapiens;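 also: growth inhibition of human RMG-I cells, read out with a cell viability assay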
Description: SANGER: Inhibition of human RMG-I cell growth in a cell viability assay.

Daudi = test: cells; format: functional, cell-based, Homo sapiens; conditions: Homo sapiens, Daudi;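 also: growth inhibition of Daudi cells, read out by a viability assay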
Description: SANGER: Inhibition of human Daudi cell growth in a cell viability assay.

SK-MEL3 = test: cells; format: functional, cell-based, SK-MEL-3; conditions: Homo sapiens;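 also: growth inhibition of human SK-MEL-3 cells, read out with a cell viability assay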
Description: SANGER: Inhibition of human SK-MEL-3 cell growth in a cell viability assay.

BEN = test: cells; format: functional, cell-based; conditions: Homo sapiens;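 also: growth inhibition of the BEN cell line, read out with a cell viability assay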
Description: SANGER: Inhibition of human BEN cell growth in a cell viability assay.

SK-HEP1 = test: cells; format: functional, cell-based, SK-HEP-1; conditions: Homo sapiens;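 also: cell viability readout used to quantify reduction in proliferation of human SK-HEP-1 cells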
Description: SANGER: Inhibition of human SK-HEP-1 cell growth in a cell viability assay.

23132-87 = test: cells; format: functional, cell-based; conditions: Homo sapiens
Description: SANGER: Inhibition of human 23132-87 cell growth in a cell viability assay.

HCT-15 = test: cells; format: functional, cell-based; conditions: Homo sapiens;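 also: cell viability readout, IC50 reflecting suppression of HCT-15 cell growth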
Description: SANGER: Inhibition of human HCT-15 cell growth in a cell viability assay.

MC-CAR = test: cells; format: functional, cell-based, Homo sapiens; conditions: Homo sapiens, MC-CAR;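 also: growth inhibition of the human MC-CAR cell line, read out by a cell viability assay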
Description: SANGER: Inhibition of human MC-CAR cell growth in a cell viability assay.

COLO-792 = test: cells; format: functional, cell-based; conditions: Homo sapiens
Description: SANGER: Inhibition of human COLO-792 cell growth in a cell viability assay.

HuCCT-1 = test: cells; format: functional, cell-based, HuCCT1; conditions: Homo sapiens;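 also: growth inhibition of HuCCT-1 cells, read out by a cell viability assay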
Description: SANGER: Inhibition of human HuCCT1 cell growth in a cell viability assay.

SNU-449 = test: cells; format: functional, cell-based; conditions: Homo sapiens
Description: SANGER: Inhibition of human SNU-449 cell growth in a cell viability assay.

CHP-212 = test: cells; format: functional, cell-based; conditions: Homo sapiens
Description: SANGER: Inhibition of human CHP-212 cell growth in a cell viability assay.

L-540 = test: cells; format: functional, cell-based, Homo sapiens; conditions: Homo sapiens, L-540;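 also: growth inhibition of the human L-540 cell line, read out with a viability assay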
Description: SANGER: Inhibition of human L-540 cell growth in a cell viability assay.

GCT = test: cells; format: functional, cell-based; conditions: Homo sapiens;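 also: GCT cell line proliferation inhibition, read out with a cell viability assay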
Description: SANGER: Inhibition of human GCT cell growth in a cell viability assay.

HuP-T4 = test: cells; format: functional, cell-based; conditions: Homo sapiens;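 also: cell viability assay measuring how much HuP-T4 cell growth is inhibited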
Description: SANGER: Inhibition of human HuP-T4 cell growth in a cell viability assay.

G-401 = test: cells; format: functional, cell-based; conditions: Homo sapiens
Description: SANGER: Inhibition of human G-401 cell growth in a cell viability assay.

HC-1 = test: cells; format: functional, cell-based, Homo sapiens; conditions: Homo sapiens, HC-1;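 also: growth inhibition of HC-1 cells measured by a cell viability assay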
Description: SANGER: Inhibition of human HC-1 cell growth in a cell viability assay.

MDA-MB-361 = test: cells; format: functional, cell-based; conditions: Homo sapiens
U2OS = test: cells; format: functional, cell-based, U-2-OS; conditions: Homo sapiens;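 also: growth inhibition of human U-2-OS cells, determined with a cell viability assay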
Description: SANGER: Inhibition of human U-2-OS cell growth in a cell viability assay.

MKN-1 = test: cells; format: functional, cell-based; conditions: Homo sapiens;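 also: growth inhibition of human MKN1 cells, read out by a cell viability measurement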
Description: SANGER: Inhibition of human MKN1 cell growth in a cell viability assay.

RVH-421 = test: cells; format: functional, cell-based; conditions: Homo sapiens
Description: SANGER: Inhibition of human RVH-421 cell growth in a cell viability assay.

IGR-1 = test: cells; format: functional, cell-based; conditions: Homo sapiens;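 also: growth inhibition of human IGR-1 cells, read out with a cell viability assay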
Description: SANGER: Inhibition of human IGR-1 cell growth in a cell viability assay.

CHL-1 = test: cells; format: functional, cell-based; conditions: Homo sapiens;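 also: cell growth inhibition, read out with a cell viability assay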
Description: SANGER: Inhibition of human CHL-1 cell growth in a cell viability assay.

THP-1 = test: cells; format: functional, cell-based, Homo sapiens; conditions: Homo sapiens, THP-1;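 also: growth inhibition of THP-1 cells, read out via a cell viability assay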
Description: SANGER: Inhibition of human THP-1 cell growth in a cell viability assay.

HO-1-N-1 = test: cells; format: functional, cell-based; conditions: Homo sapiens;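 also: growth inhibition of human HO-1-N-1 cells, read out with a cell viability assay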
Description: SANGER: Inhibition of human HO-1-N-1 cell growth in a cell viability assay.

OE19 = test: cells; format: functional, cell-based; conditions: Homo sapiens;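 also: growth inhibition of OE19 cells, measured through a cell viability read-out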
Description: SANGER: Inhibition of human OE19 cell growth in a cell viability assay.

KP-4 = test: cells; format: functional, cell-based; conditions: Homo sapiens;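 also: human KP-4 cells, with growth inhibition read out through a cell viability assay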
Description: SANGER: Inhibition of human KP-4 cell growth in a cell viability assay.

786-0 = test: cells; format: functional, cell-based; conditions: Homo sapiens
Description: SANGER: Inhibition of human 786-0 cell growth in a cell viability assay.

NCI-H1694 = test: cells; format: functional, cell-based, Homo sapiens; conditions: Homo sapiens, NCI-H1694;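 also: cell viability assay measuring inhibition of growth in human NCI-H1694 cells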
Description: SANGER: Inhibition of human NCI-H1694 cell growth in a cell viability assay.

YT = test: cells; format: functional, cell-based, Homo sapiens; conditions: Homo sapiens, YT
Description: SANGER: Inhibition of human YT cell growth in a cell viability assay.

CAL-51 = test: cells; format: functional, cell-based; conditions: Homo sapiens;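 also: human CAL-51 cell line, growth inhibition read out via a cell viability assay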
Description: SANGER: Inhibition of human CAL-51 cell growth in a cell viability assay.

PANC-03-27 = test: cells; format: functional, cell-based; conditions: Homo sapiens
Description: SANGER: Inhibition of human PANC-03-27 cell growth in a cell viability assay.

MHH-CALL-2 = test: cells; format: functional, cell-based, Homo sapiens; conditions: Homo sapiens, MHH-CALL-2;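 also: growth inhibition of the cell line, read out in a cell viability assay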
Description: SANGER: Inhibition of human MHH-CALL-2 cell growth in a cell viability assay.

CMK = test: cells; format: functional, cell-based, Homo sapiens; conditions: Homo sapiens, CMK;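 also: growth inhibition of CMK cells, read out as cell viability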
Description: SANGER: Inhibition of human CMK cell growth in a cell viability assay.

SW837 = test: cells; format: functional, cell-based; conditions: Homo sapiens;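 also: growth inhibition of SW837 cells, determined with a cell viability assay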
Description: SANGER: Inhibition of human SW837 cell growth in a cell viability assay.

A 172 = test: cells; format: functional, cell-based; conditions: Homo sapiens;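 also: growth inhibition of A172 cells, measured with a cell viability readout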
Description: SANGER: Inhibition of human A172 cell growth in a cell viability assay.

NCI-H1693 = test: cells; format: functional, cell-based; conditions: Homo sapiens;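 also: growth inhibition of the human cell line, read out with a cell viability assay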
Description: SANGER: Inhibition of human NCI-H1693 cell growth in a cell viability assay.

A-375 = test: cells; format: functional, cell-based; conditions: Homo sapiens;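 also: growth inhibition of A375 cells, read out with a cell viability assay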
Description: SANGER: Inhibition of human A375 cell growth in a cell viability assay.

EFO-21 = test: cells; format: functional, cell-based; conditions: Homo sapiens;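 also: growth inhibition of EFO-21 cells measured with a viability assay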
Description: SANGER: Inhibition of human EFO-21 cell growth in a cell viability assay.

MRK-nu-1 = test: cells; format: functional, cell-based, Homo sapiens; conditions: Homo sapiens, MRK-nu-1;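 also: cell viability assay measuring growth suppression of human MRK-nu-1 cells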
Description: SANGER: Inhibition of human MRK-nu-1 cell growth in a cell viability assay.

MEL-JUSO = test: cells; format: functional, cell-based; conditions: Homo sapiens;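 also: growth inhibition of human MEL-JUSO cells, read out with a cell viability assay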
Description: SANGER: Inhibition of human MEL-JUSO cell growth in a cell viability assay.

NCI-H1417 = test: cells; format: functional, cell-based, Homo sapiens; conditions: Homo sapiens, NCI-H1417;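 also: human NCI-H1417 cells, growth inhibition determined with a cell viability readout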
Description: SANGER: Inhibition of human NCI-H1417 cell growth in a cell viability assay.

OC[C@H](Cc1ccccc1)Nc1nc(Oc2ccc3c(c2)CCC3)nc2c1ncn2Cc1ccc(-c2ccccc2)cc1
IC50 (NCI-H889): > 10.2 µM
IC50 (CaR-1): > 10.2 µM
IC50 (LCLC-103H cell line): > 10.2 µM
IC50 (MDA-MB-157): > 10.2 µM
IC50 (NCI-H1651): > 10.2 µM
IC50 (SK-MEL-28): > 10.2 µM
IC50 (KYSE-520 cell line): > 10.2 µM
IC50 (HCC1954): 10 µM
IC50 (SF-295): 3.23 µM
IC50 (ABC-1): > 10.2 µM
IC50 (TE-441-T): > 10.2 µM
IC50 (WSU-NHL): > 10.2 µM
IC50 (BC1 cell line): > 10.2 µM
IC50 (SK-MES-1): 8.44 µM
IC50 (KYSE-70 cell line): > 10.2 µM
IC50 (SJRH30): > 10.2 µM
IC50 (NCI-H524): > 10.2 µM
IC50 (RMG-I): > 10.2 µM
IC50 (Daudi): > 10.2 µM
IC50 (SK-MEL3): > 10.2 µM
IC50 (BEN): > 10.2 µM
IC50 (SK-HEP1): 10.1 µM
IC50 (23132-87): 6.07 µM
IC50 (HCT-15): 2.49 µM
IC50 (MC-CAR): > 10.2 µM
IC50 (COLO-792): 4.79 µM
IC50 (HuCCT-1): > 10.2 µM
IC50 (SNU-449): 1.09 µM
IC50 (CHP-212): > 10.2 µM
IC50 (L-540): > 10.2 µM
IC50 (GCT): > 10.2 µM
IC50 (HuP-T4): 7.07 µM
IC50 (G-401): > 10.2 µM
IC50 (HC-1): > 10.2 µM
IC50 (MDA-MB-361): > 10.2 µM
IC50 (U2OS): > 10.2 µM
IC50 (MKN-1): > 10.2 µM
IC50 (RVH-421): > 10.2 µM
IC50 (IGR-1): > 10.2 µM
IC50 (CHL-1): > 10.2 µM
IC50 (THP-1): > 10.2 µM
IC50 (HO-1-N-1): > 10.2 µM
IC50 (OE19): > 10.2 µM
IC50 (KP-4): > 10.2 µM
IC50 (786-0): 1.26 µM
IC50 (NCI-H1694): > 10.2 µM
IC50 (YT): > 10.2 µM
IC50 (CAL-51): 2.23 µM
IC50 (PANC-03-27): 7.89 µM
IC50 (MHH-CALL-2): > 10.2 µM
IC50 (CMK): > 10.2 µM
IC50 (SW837): > 10.2 µM
IC50 (A 172): 6.16 µM
IC50 (NCI-H1693): 7.05 µM
IC50 (A-375): 6.87 µM
IC50 (EFO-21): > 10.2 µM
IC50 (MRK-nu-1): > 10.2 µM
IC50 (MEL-JUSO): 7.9 µM
IC50 (NCI-H1417): > 10.2 µM

O=S(=O)(O)c1ccc2cc(/N=N/c3cc(S(=O)(=O)O)c4cccnc4c3O)ccc2c1
IC50 (NCI-H889): > 16 µM
IC50 (CaR-1): > 16 µM
IC50 (LCLC-103H cell line): > 16 µM
IC50 (MDA-MB-157): > 16 µM
IC50 (NCI-H1651): > 16 µM
IC50 (SK-MEL-28): > 16 µM
IC50 (KYSE-520 cell line): > 16 µM
IC50 (HCC1954): > 16 µM
IC50 (SF-295): > 16 µM
IC50 (ABC-1): > 16 µM
IC50 (TE-441-T): > 16 µM
IC50 (WSU-NHL): > 16 µM
IC50 (BC1 cell line): > 16 µM
IC50 (SK-MES-1): > 16 µM
IC50 (KYSE-70 cell line): > 16 µM
IC50 (SJRH30): > 16 µM
IC50 (NCI-H524): > 16 µM
IC50 (RMG-I): > 16 µM
IC50 (Daudi): > 16 µM
IC50 (SK-MEL3): > 16 µM
IC50 (BEN): > 16 µM
IC50 (SK-HEP1): > 16 µM
IC50 (23132-87): > 16 µM
IC50 (HCT-15): 15.9 µM
IC50 (MC-CAR): > 16 µM
IC50 (COLO-792): > 16 µM
IC50 (HuCCT-1): > 16 µM
IC50 (SNU-449): > 16 µM
IC50 (CHP-212): > 16 µM
IC50 (L-540): > 16 µM
IC50 (GCT): > 16 µM
IC50 (HuP-T4): > 16 µM
IC50 (G-401): > 16 µM
IC50 (HC-1): > 16 µM
IC50 (MDA-MB-361): > 16 µM
IC50 (U2OS): > 16 µM
IC50 (MKN-1): > 16 µM
IC50 (RVH-421): > 16 µM
IC50 (IGR-1): > 16 µM
IC50 (CHL-1): > 16 µM
IC50 (THP-1): > 16 µM
IC50 (HO-1-N-1): > 16 µM
IC50 (OE19): > 16 µM
IC50 (KP-4): > 16 µM
IC50 (786-0): 5.59 µM
IC50 (NCI-H1694): > 16 µM
IC50 (YT): > 16 µM
IC50 (CAL-51): 9.36 µM
IC50 (PANC-03-27): > 16 µM
IC50 (MHH-CALL-2): > 16 µM
IC50 (CMK): > 16 µM
IC50 (SW837): > 16 µM
IC50 (A 172): > 16 µM
IC50 (NCI-H1693): > 16 µM
IC50 (A-375): > 16 µM
IC50 (EFO-21): > 16 µM
IC50 (MRK-nu-1): > 16 µM
IC50 (MEL-JUSO): > 16 µM
IC50 (NCI-H1417): > 16 µM
